According to paper PMC6424980, “Distinct G protein-coupled receptor phosphorylation motifs modulate arrestin affinity and activation and global conformation” (Nature Communications, 2019):
Non-standard residues stand in square brackets, D forms with d. No end group written: not given here. pS = N[C@@H](COP(=O)(O)O)C(=O)O

Columns and labels:
[1] = target: T1, arrestin-1 (monomerizing mutant F85A, F197A) (Bos taurus, UniProt P08168, F197A/F85A); test: Fluorescence anisotropy binding of fluorescein-labelled peptides to arrestin-1; set-up: species or system bovine
T1 construct: made in house; host or cells: E. coli NiCo (DE3) cells (New England Biolabs), pET-15b vector
From the text: (§1) Synthesized cDNAs of bovine arrestin-1, human arrestin-2 and human arrestin-3 were ordered from Genewiz, amplified by PCR and cloned (Supplementary Information Table 5) into the pET-15b vector (Novagen), using the Gibson Assembly protocol. The constructs contained an N-terminal hexa histidine tag linked by a linker that contained a Tobacco Etch Virus cleavage site (TEV; […]). PCR was used to introduce the monomerizing arrestin-1 mutations (F85A, F197A)[58]. Note that this mutant was employed for fluorescence anisotropy, trypsin digestion, and NMR experiments. Wild-type arrestin-2 and -3 were used for fluorescence anisotropy and trypsin digestion experiments. […] The arrestin-1 in this construct had the wild-type sequence. Note that this construct differs slightly from that previously published[59],[60] and was optimized for purification. We verified the functionality of this fusion construct using the standard centrifugal pull-down assay using phosphorylated rhodopsin in native ROS membranes.
0.1–0.2 mg of lyophilized peptide was dissolved in 50 µl of 50 mM phosphate-buffered saline (PBS) buffer at pH 7.0, and then two molar equivalents of fluorescein-5-maleimide dye stock dissolved in dimethylsulfoxid was added. The reaction was carried out at RT in the dark. After 1 h the reaction was topped up with 1 ml of ice-cold 100% acetone and stored until the next day at −20 °C. The precipitated peptide was centrifuged (13,000 × g) for 10 min. The labeled and precipitated peptide was sedimented, and the supernatant was removed. The peptide was resuspended again in ice-cold acetone, stored for 1 h at −20 °C and centrifuged (13,000 × g) for 10 min. […] The precipitated peptide was dried at RT in the dark. It was dissolved in 50 µl of 20 mM Bis-Tris propane pH 7.0 and 150 mM NaCl and its concentration was determined by absorbance. A molar extinction coefficient of 70,000/M/cm at pH 7.0 was assumed for calculating the concentration of the labeled peptide stock.
An 11-step serial dilution series of arrestin in 20 mM Bis-Tris propane pH 7.0, 150 mM NaCl, 8 mM 2‑mercaptoethanol, 2% (w/w) BSA, 0.02% (v/v) Tween-20 was prepared and transferred to a black high-bottom 384-well plate (Greiner). As control for free peptide, a position with only buffer was included. The peptide was added at a final concentration of 20 nM to each well. The plate was closed by a clear cover and vortexed for 15 s. Afterwards it was centrifuged (800 × g) for 2 min and stored at RT for 20 min. The reading was performed by default settings of PHERAstar plate-reader (BMG Labtech) and excitation‑/emission-wavelengths of 485 nm (12 nm bandpass)/520 nm (30 nm bandpass) were used. The analysis was performed using Origin2016 (Microcal Inc) software by fitting the data to a one-to-one binding model:2 r=R0+△R*P/Kd+P, where r stands for anisotropy, R0 stands for anisotropy of the ligand, ΔR stands for anisotropy of the complex minus anisotropy of the ligand, P stands for the concentration of protein, and Kd stands for the dissociation constant of the ligand.

[2] = tested on: arrestin-1 mutants I72B and F197NBD with nonphosphorylated light-activated rhodopsin in ROS membranes; test: Ternary complex formation (site-directed fluorescence and centrifugal pull-down); type: biochemical, bovine; settings: 10 µM rhodopsin in ROS, 1 µM arrestin-1 I72B or F197NBD, 100 µM peptide, pH 7
From the text: Recombinant bovine arrestin-1 cloned into the pET15b vector was expressed and purified as described. The basic construct was a modified wild-type sequence that contained no native cysteines (C63A, C128S and C143A) nor tryptophans (W194F). Single cysteine residues were introduced by PCR at sites 72 or 197 as previously described. The I72C mutant was labeled with monobromobimane (Thermo Fisher) and is referred to as I72B. The F197C mutant was labeled with N,N′-Dimethyl-N-(Iodoacetyl)-N′-(7-Nitrobenz-2-Oxa-1,3-Diazol-4-yl)Ethylenediamine (IANBD amide, Thermo Fisher) and is referred to as F197NBD. Labeling was carried out as previously described[43],[61]. Both labeled mutants were assessed to be functionally similar to wild-type arrestin-1 using the Extra Meta II assay, which determines the ability of arrestin-1 to bind and stabilize the active Meta II form of rhodopsin[64].
Under dim-red light, samples were prepared that contained nonphosphorylated rhodopsin (10 µM) in ROS membranes, 1 µM arrestin-1 I72B or F197NBD, ±100 µM peptide in 50 mM HEPES, 130 mM NaCl, pH 7 (150 or 200 µl sample volume). One hundred microliters of the sample was used for fluorescence measurements, and the remainder was used for the centrifugal pull-down assay (50 µl per assay). Steady-state fluorescence measurements were performed using a SPEX Fluorolog (1680) instrument in front-face mode. Bimane fluorescence was recorded using an excitation wavelength of 400 nm and emission 424–600 nm, and NBD fluorescence was recorded using an excitation wavelength of 500 nm and emission 524–660 (2 nm step size, 0.5 s integration per point). Excitation slits were narrowed to 0.1−0.2 nm to minimize light-activation of rhodopsin, and emission slits were set at 4 nm. Pull-down analysis was performed by centrifuging samples at 16,000 × g for 10 min at 20 °C. Selected samples were light activated (>495 nm) for 15 s prior to centrifugation (appr. 60 s delay time). Following centrifugation, the supernatants were removed, and the pellets were solubilized in loading buffer containing 2% SDS and subjected to SDS PAGE. Bands were visualized using Coomassie Brilliant Blue.

arrestin-2 = test: Fluorescence anisotropy binding of fluorescein-labelled peptides to arrestin-2; set-up: species or system human
From the text: as §1
0.1–0.2 mg of lyophilized peptide was dissolved in 50 µl of 50 mM phosphate-buffered saline (PBS) buffer at pH 7.0, and then two molar equivalents of fluorescein-5-maleimide dye stock dissolved in dimethylsulfoxid was added. The reaction was carried out at RT in the dark. […] It was dissolved in 50 µl of 20 mM Bis-Tris propane pH 7.0 and 150 mM NaCl and its concentration was determined by absorbance. […]

arrestin-1 (F85A, F197A) = test: Limited trypsin digestion of arrestin-1 in presence of peptide; type: biochemical, bovine; settings: arrestin:peptide 1:1.2, 35 °C, SDS PAGE
From the text: as §1
Arrestin (60 µg) was mixed at a 1 to 1.2 molar ratio with peptide and preincubated at RT for 5 min before 1 μl of 0.15 mg/ml trypsin stock was added. The enzymatic digestion was carried out at 35 °C (20 mM Bis-Tris propane pH 7.0, 150 mM NaCl, 10 mM 2‑Mercaptoethanol and 2 mM EDTA). At certain time points (5, 15, 30, 60, 90 min), 5 μl aliquots were quenched with heat incubation in the presence of 20 μl SDS loading buffer (95 °C, 5 min) and then subjected to SDS PAGE. Bands were visualized with InstantBlue (Expedeon).

[3] = target: T2, bovine arrestin-1 with the monomerizing mutations F85A, F197A (bovine, UniProt P08168 2-404, F85A | F197A); test: fluorescence polarisation; fluorescence anisotropy; 20 nM fluorescently labelled peptide, 11-step serial dilution of arrestin; 20 mM Bis-Tris propane pH 7.0, 150 mM NaCl, 8 mM 2-mercaptoethanol, 2% BSA, 0.02% Tween-20; RT; one-to-one binding model; settings: both partners purified
T2 construct: arrestin-1, bovine, synthesized cDNA in pET-15b; monomerizing mutations F85A, F197A; Used for fluorescence anisotropy, trypsin digestion and NMR (2H,15N,13C-labelled for NMR); residues of the linker may remain after cleavage (surmised); source: E. coli NiCo (DE3), purified (Ni-NTA, TEV, SQ column); not shown: His6, N-terminal, cleaved
T2 sequence (P08168 2-404 F85A/F197A): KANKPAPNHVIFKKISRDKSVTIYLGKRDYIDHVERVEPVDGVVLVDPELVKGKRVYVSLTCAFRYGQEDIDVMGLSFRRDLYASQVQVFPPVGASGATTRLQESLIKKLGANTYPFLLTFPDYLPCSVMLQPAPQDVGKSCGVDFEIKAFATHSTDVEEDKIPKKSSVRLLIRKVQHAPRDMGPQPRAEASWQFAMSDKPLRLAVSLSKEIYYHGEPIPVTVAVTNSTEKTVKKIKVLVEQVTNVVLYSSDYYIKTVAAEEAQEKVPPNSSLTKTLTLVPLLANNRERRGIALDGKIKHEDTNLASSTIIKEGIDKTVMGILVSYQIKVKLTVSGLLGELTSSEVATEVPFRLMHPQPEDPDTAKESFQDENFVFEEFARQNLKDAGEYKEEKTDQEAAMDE

T1 sequence (P08168 whole entry F85A/F197A): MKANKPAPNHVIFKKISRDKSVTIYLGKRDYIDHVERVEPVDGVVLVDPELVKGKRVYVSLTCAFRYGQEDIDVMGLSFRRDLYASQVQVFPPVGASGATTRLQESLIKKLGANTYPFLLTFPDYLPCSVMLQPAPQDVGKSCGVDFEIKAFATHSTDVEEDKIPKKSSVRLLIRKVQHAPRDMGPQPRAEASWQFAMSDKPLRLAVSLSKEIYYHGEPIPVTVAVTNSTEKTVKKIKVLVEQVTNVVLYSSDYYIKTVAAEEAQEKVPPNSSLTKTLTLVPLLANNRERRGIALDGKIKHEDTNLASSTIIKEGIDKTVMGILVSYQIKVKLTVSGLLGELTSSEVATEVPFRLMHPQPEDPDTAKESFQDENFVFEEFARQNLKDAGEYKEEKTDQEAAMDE

CDDEASTTVSKTETSQVAPA [3Pe, tri-phosphorylated rhodopsin C-terminus peptide lacking one or both key sites]
binding to arrestin-1 (in words) [1]: significant loss of affinity
ternary complex formation (arrestin-1, nonphosphorylated rhodopsin, peptide) [2]: very little arrestin binding

CDDEASTTVSKTETSQVAPA [3Pf]
binding to arrestin-1 (in words) [1]: significant loss of arrestin-1 affinity
ternary complex formation (arrestin-1, nonphosphorylated rhodopsin, peptide) [2]: less ternary complex formation
binding to arrestin-2 (in words) (arrestin-2): bound well
limited trypsin digest pattern of arrestin-1 (conformational change, C-tail displacement) (arrestin-1 (F85A, F197A)): notable exception

CDDEASTTVSKTETSQVAPA [3Pg, tri-phosphorylated rhodopsin C-terminus peptide lacking one key site, containing pT335 and pS338]
binding to arrestin-1 (in words) [1]: significant loss of affinity
ternary complex formation (arrestin-1, nonphosphorylated rhodopsin, peptide) [2]: moderate ternary complex formation

CDDEASTTVSKTETSQVAPA [3Ph, tri-phosphorylated rhodopsin C-terminus peptide lacking one or both key sites]
binding to arrestin-1 (in words) [1]: significant loss of affinity
ternary complex formation (arrestin-1, nonphosphorylated rhodopsin, peptide) [2]: very little arrestin binding

CDDEASTTVSKTETSQVAPA [3Pi, tri-phosphorylated rhodopsin C-terminus peptide lacking one key site, containing pT335 and pS338]
binding to arrestin-1 (in words) [1]: significant loss of affinity
ternary complex formation (arrestin-1, nonphosphorylated rhodopsin, peptide) [2]: moderate ternary complex formation

CDDEASTTVSKTETSQVAPA [3Pj, tri-phosphorylated rhodopsin C-terminus peptide lacking one or both key sites]
binding to arrestin-1 (in words) [1]: significant loss of affinity
ternary complex formation (arrestin-1, nonphosphorylated rhodopsin, peptide) [2]: very little arrestin binding

CDDEASTTVSKTETSQVAPA [3Pk, tri-phosphorylated rhodopsin C-terminus peptide lacking one or both key sites]
binding to arrestin-1 (in words) [1]: significant loss of affinity
ternary complex formation (arrestin-1, nonphosphorylated rhodopsin, peptide) [2]: very little arrestin binding

B1: phosphopeptide 6P of the bovine rhodopsin C-terminus (peptide)
chain: C(fluorescein‑5‑maleimide)DDEASTTVSKTET[pS]QVAPA
modifications: not fully specified (residue 12); also: four further phospho-Ser/Thr sites not placed
Kd [3]: < 250 µM

B2: phosphopeptide 4P of the bovine rhodopsin C-terminus (peptide)
chain: C(fluorescein‑5‑maleimide)DDEASTTVSKTET[pS]QVAPA
modifications: not fully specified (residue 12); also: two further phospho-Ser/Thr sites not placed
Kd [3]: < 250 µM

C(fluorescein‑5‑maleimide)DDEASTTVSKTET[pS]QVAPA (not fully specified (residue 12); also: third phospho-Ser/Thr site not placed) [tri-phosphorylated peptide 3Pa of the bovine rhodopsin C-terminus]
Kd [3]: < 250 µM

C(fluorescein‑5‑maleimide)DDEASTTVSKTET[pS]QVAPA (not fully specified (residue 12); also: third phospho-Ser/Thr site not placed) [tri-phosphorylated peptide 3Pb of the bovine rhodopsin C-terminus]
Kd [3]: < 250 µM

C(fluorescein‑5‑maleimide)DDEASTTVSKTET[pS]QVAPA (not fully specified (residue 12); also: third phospho-Ser/Thr site not placed) [tri-phosphorylated peptide 3Pc of the bovine rhodopsin C-terminus]
Kd [3]: < 250 µM

C(fluorescein‑5‑maleimide)DDEASTTVSKTET[pS]QVAPA (not fully specified (residue 12); also: third phospho-Ser/Thr site not placed) [tri-phosphorylated peptide 3Pd of the bovine rhodopsin C-terminus]
Kd [3]: < 250 µM
